Test results published in patent publication US20250230165A1, “HETEROCYCLIC COMPOUNDS FOR USE IN THE TREATMENT OF CANCER” (ARTIOS PHARMA LIMITED, priority 2021, published 2025).

Molecular target: T1, Human Polθ polymerase domain (aa1820-2590) (Homo sapiens, UniProt O75417)
T1 construct: Human Polθ polymerase domain (aa1820-2590) was expressed in E. coli; made in house; host or cells: E. coli
T1 sequence (O75417 1820-2590): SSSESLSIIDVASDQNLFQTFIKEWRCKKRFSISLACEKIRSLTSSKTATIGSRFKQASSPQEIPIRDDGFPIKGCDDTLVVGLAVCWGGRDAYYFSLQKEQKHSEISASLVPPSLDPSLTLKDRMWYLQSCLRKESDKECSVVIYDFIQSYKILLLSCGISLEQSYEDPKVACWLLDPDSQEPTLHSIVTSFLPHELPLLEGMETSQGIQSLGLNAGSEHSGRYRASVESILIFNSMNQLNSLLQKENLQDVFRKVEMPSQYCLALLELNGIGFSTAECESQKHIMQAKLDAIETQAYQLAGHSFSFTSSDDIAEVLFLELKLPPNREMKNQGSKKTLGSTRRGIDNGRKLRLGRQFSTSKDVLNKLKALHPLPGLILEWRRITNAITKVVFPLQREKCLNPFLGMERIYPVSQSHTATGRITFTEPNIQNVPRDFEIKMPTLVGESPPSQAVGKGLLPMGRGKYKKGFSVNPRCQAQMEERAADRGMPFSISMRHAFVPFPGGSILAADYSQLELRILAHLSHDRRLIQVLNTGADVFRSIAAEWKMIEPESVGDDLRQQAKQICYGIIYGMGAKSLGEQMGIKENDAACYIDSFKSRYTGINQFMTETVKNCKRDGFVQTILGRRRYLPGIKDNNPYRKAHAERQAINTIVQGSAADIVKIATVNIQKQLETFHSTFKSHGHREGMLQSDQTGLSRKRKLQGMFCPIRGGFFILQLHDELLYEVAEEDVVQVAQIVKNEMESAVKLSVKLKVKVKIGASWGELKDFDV
Experiment: Polθ Polymerase Domain Kinact/KI Assay (PicoGreen)
Type: biochemical
Conditions: 0.8 nM Polθ, 100 nM DNA substrate, kobs vs [I] fit for 2-step covalent inhibitor
Method in brief: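 PicoGreen fluorescence read-out of primer extension; progress curves per inhibitor concentration fitted for kobs, then kobs vs [I] fitted to a two-step covalent model to give Kinact and KI. Conditions: 0.8 nM enzyme, 100 nM DNA substrate, […].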

Row | SMILES | Kinact/Kl
1 | C=C(CN(C)C)C(=O)N[C@@H]1CCn2cc(CN3C[C@H]4CC(=O)N(c5cc(C(F)(F)F)cc(C)n5)[C@@H]4C(=O)N(C)c4cccc(C)c43)nc2C1 (racemic) [Example 330b, N-((R/S)-2-(((3aR, 11aS)-6,10-dimethyl-1-(6-methyl-4-(trifluoromethyl)pyr-idin-2-yl)-2,11-dioxo-1,2,3,3a,4,10,11,11a-octahydro-5H-benzo [b]pyrrolo[2,3-f][1,4]diazocin-5-yl)meth-yl)-5,6,7,8-tetrahydro-imidazo[1,2-a]pyridin-7-yl)-2-((dimethyl-amino)methyl)acryl-amide] | 1.15e+06 M⁻¹ s⁻¹
2 | C=CC(=O)N1C[C@@H]2CN(CCN3C[C@H]4CC(=O)N(c5cc(C(F)(F)F)cc(C)n5)[C@@H]4C(=O)N(C)c4cccc(F)c43)CCN2[C@@H](C)C1 [Example 64b, (3aR,11aS)-5-(2-((6S/R,9aS/R)-8-acryloyl-6-methyloctahydro-2H-pyrazino[1,2-a]pyrazin-2-yl)ethyl)-6-fluoro-10-methyl-1-(6-methyl-4-(trifluoromethyl)pyridin-2-yl)-1,3a,4,5,10,11a-hexahydro-2H-benzo[b]pyrrolo[2,3-f][1,4]diazocine-2,11(3H)-dione] | 270000 M⁻¹ s⁻¹
3 | C=CC(=O)N1CCn2cc(CN3C[C@H]4CC(=O)N(c5cc(C(F)(F)F)cc(C)n5)[C@@H]4C(=O)N(C)c4cccc(Cl)c43)nc2[C@@H]1C (racemic) [Example 142b] | 630000 M⁻¹ s⁻¹
4 | C=C(CN(C)C)C(=O)N1CC(CCCCN2C[C@H]3CC(=O)N(c4cc(C(F)(F)F)cc(C)n4)[C@@H]3C(=O)Nc3cccc(C)c32)C1 [Example 192, (3aR,11aS)-5-(4-(1-(2-((dimethyl-amino)methyl)-acryloyl)azetidin-3-yl)butyl)-6-meth-yl-1-(6-methyl-4-(trifluoromethyl)-pyridin-2-yl)-1,3a,4,5,10,11a-hexahydro-2H-benzo[b]pyrrolo [2,3-f][1,4]diazo-cine-2,11(3H)-dione] | 2.18e+06 M⁻¹ s⁻¹
5 | C=CC(=O)N1Cc2nc(CN3C[C@H]4CC(=O)N(c5cc(C(F)(F)F)cc(C)n5)[C@@H]4C(=O)N(C)c4cccc(C)c43)cn2C[C@H]1C(F)(F)F (racemic) [Example 322a, (3aR,11aS)-5-(((S/R)-7-acryloyl-6-(trifluoromethyl)-5,6,7,8-tetrahydro-imidazo[1,2-a]pyr-azin-2-yl)methyl)-6,10-dimethyl-1-(6-methyl-4-(trifluoro-methyl)pyridin-2-yl)-1,3a,4,5,10,11a-hexahydro-2H-benzo[b]pyrrolo [2,3-f][1,4]diazo-cine-2,11(3H)-dione] | 1.56e+06 M⁻¹ s⁻¹
6 | C=CC(=O)N1CCC[C@@H]1c1noc(CN2C[C@H]3CC(=O)N(c4cc(C(F)(F)F)cc(C)n4)[C@@H]3C(=O)N(C)c3cccc(C)c32)n1 [Example 268, (3aR,11aS)-5-((3-((R)-1-acryloylpyrrolidin-2-yl)-1,2,4-oxadiazol-5-yl)methyl)-6,10-dimethyl-1-(6-methyl-4-(trifluoromethyl)pyridin-2-yl)-1,3a,4,5,10,11a-hexahydro-2H-bez[b]pyrrolo[2,3-f][1,4]diazocine-2,11(3H)-dione] | 410000 M⁻¹ s⁻¹
7 | C=CC(=O)N1CC(N2CC[C@@H](CN3C[C@H]4CC(=O)N(c5cc(C(F)(F)F)cc(C)n5)[C@@H]4C(=O)N(C)c4cccc(C)c43)C2)C1 [Example 224, (3aR,11aS)-5-(((R)-1-(1-acryloylazetidin-3-yl)pyrrolidin-3-yl)methyl)-6,10-dimethyl-1-(6-methyl-4-(trifluoromethyl)pyridin-2-yl)-1,3a,4,5,10,11a-hexahydro-2H-benzo[b]pyrrolo [2,3-f][1,4] diazocine-2,11(3H)-dione] | 4.21e+06 M⁻¹ s⁻¹
8 | C=CC(=O)N1Cc2cc(CN3C[C@H]4CC(=O)N(c5cc(C(F)(F)F)cc(C)n5)[C@@H]4C(=O)N(C)c4cccc(Cl)c43)nn2CC1C (single isomer, unassigned) [Example 294a] | 1.61e+06 M⁻¹ s⁻¹
